Measurements taken from ChEMBL document CHEMBL5724914, “Linking interpersonal differences in gut microbiota composition and drug biotransformation activity” (2024).

What was measured:
[1] = (§1) The drug is tested on Z-030 corresponding to mouse gut metagenome with ENA study accession number: PRJEB37062 and ENA sample accession number: ERS12561829 for biotransformation under anaerobic condition. The drug concentrations were measured over 9 timepoints collected between 0 and 24 hours of incubation by liquid-chromatography-coupled mass spectrometry (LC–MS); settings: 2 µM
[2] = as §1, with “Z-028” for “Z-030”, “ERS12561827” for “ERS12561829”; settings: 2 µM
[3] = as §1, with “Z-027” for “Z-030”, “to” for “to mouse gut”, “ERS12561826” for “ERS12561829”; settings: 2 µM
[4] = as §1, with “Z-019” for “Z-030”, “rat” for “mouse”, “ERS12561818” for “ERS12561829”; settings: 2 µM
[5] = as §1, with “Z-016” for “Z-030”, “ERS12561815” for “ERS12561829”; settings: 2 µM
[6] = as §1, with “Z-011” for “Z-030”, “ERS12561811” for “ERS12561829”; settings: 2 µM
[7] = as §1, with “Z-010” for “Z-030”, “to” for “to mouse gut”, “ERS12561810” for “ERS12561829”; settings: 2 µM
[8] = as §1, with “Z-004” for “Z-030”, “to” for “to mouse gut”, “ERS12561804” for “ERS12561829”; settings: 2 µM
[9] = as §1, with “WLS-240” for “Z-030”, “human” for “mouse”, “ERS12561773” for “ERS12561829”; settings: 2 µM
[10] = as §1, with “WLS-098” for “Z-030”, “human” for “mouse”, “ERS12561754” for “ERS12561829”; settings: 2 µM
[11] = as §1, with “WLS-038” for “Z-030”, “human” for “mouse”, “ERS12561745” for “ERS12561829”; settings: 2 µM
[12] = human gut metagenome, 24 h, 2 µM
[13] = human gut metagenome, 24 h, 2 µM; remark: listed apart in the source
[14] = human gut metagenome, 24 h, 2 µM; remark: listed apart in the source
[15] = human gut metagenome, 24 h, 2 µM; remark: listed apart in the source
[16] = human gut metagenome, 24 h, 2 µM; remark: listed apart in the source
[17] = human gut metagenome, 24 h, 2 µM; remark: listed apart in the source
[18] = human gut metagenome, 24 h, 2 µM; remark: listed apart in the source
[19] = human gut metagenome, 24 h, 2 µM; remark: listed apart in the source
[20] = human gut metagenome, 24 h, 2 µM; remark: listed apart in the source
Also: call rule not given here.

Row | Bacterial Biotransformation [1] | Bacterial Biotransformation [2] | Bacterial Biotransformation [3] | Bacterial Biotransformation [4] | Bacterial Biotransformation [5] | Bacterial Biotransformation [6] | Bacterial Biotransformation [7] | Bacterial Biotransformation [8] | Bacterial Biotransformation [9] | Bacterial Biotransformation [10] | Bacterial Biotransformation [11] | Bacterial Biotransformation [12] | Bacterial Biotransformation [13] | Bacterial Biotransformation [14] | Bacterial Biotransformation [15] | Bacterial Biotransformation [16] | Bacterial Biotransformation [17] | Bacterial Biotransformation [18] | Bacterial Biotransformation [19] | Bacterial Biotransformation [20] | SMILES
1 | Compound NOT metabolized | Compound metabolized | Compound NOT metabolized | Compound NOT metabolized | Compound NOT metabolized | Compound metabolized | Compound metabolized | Compound NOT metabolized | Compound metabolized | Compound metabolized | Compound metabolized | Compound metabolized | Compound metabolized | Compound metabolized | Compound metabolized | Compound metabolized | Compound metabolized | Compound metabolized | Compound metabolized | Compound metabolized | CC(=O)OCC(CCn1cnc2cnc(N)nc21)COC(C)=O [FAMCICLOVIR]
2 | Compound NOT metabolized | Compound NOT metabolized | Compound NOT metabolized | Compound NOT metabolized | Compound NOT metabolized | Compound NOT metabolized | Compound NOT metabolized | Compound NOT metabolized | Compound NOT metabolized | Compound NOT metabolized | Compound NOT metabolized | Compound NOT metabolized | Compound NOT metabolized | Compound NOT metabolized | Compound NOT metabolized | Compound NOT metabolized | Compound NOT metabolized | Compound NOT metabolized | Compound NOT metabolized | Compound NOT metabolized | CC1Cc2ccccc2N1NC(=O)c1ccc(Cl)c(S(N)(=O)=O)c1 (stereo not given) [INDAPAMIDE]
3 | Compound NOT metabolized | Compound NOT metabolized | Compound metabolized | Compound NOT metabolized | Compound NOT metabolized | Compound NOT metabolized | Compound NOT metabolized | Compound NOT metabolized | Compound metabolized | Compound metabolized | Compound metabolized | Compound metabolized | Compound metabolized | Compound metabolized | Compound metabolized | Compound metabolized | Compound metabolized | Compound metabolized | Compound metabolized | Compound metabolized | COc1ccc2c(c1)c(CC(=O)O)c(C)n2C(=O)c1ccc(Cl)cc1 [INDOMETHACIN]

More lines, now with the values behind:

Row | SMILES | Bacterial Biotransformation [1] | Bacterial Biotransformation [2] | Bacterial Biotransformation [3] | Bacterial Biotransformation [4] | Bacterial Biotransformation [5] | Bacterial Biotransformation [6] | Bacterial Biotransformation [7] | Bacterial Biotransformation [8] | Bacterial Biotransformation [9] | Bacterial Biotransformation [10] | Bacterial Biotransformation [11] | Bacterial Biotransformation [12] | Bacterial Biotransformation [13] | Bacterial Biotransformation [14] | Bacterial Biotransformation [15] | Bacterial Biotransformation [16] | Bacterial Biotransformation [17] | Bacterial Biotransformation [18] | Bacterial Biotransformation [19] | Bacterial Biotransformation [20]
4 | COc1cc2nc(N3CCN(C(=O)C4COc5ccccc5O4)CC3)nc(N)c2cc1OC.CS(=O)(=O)O (stereo not given) [DOXAZOSIN MESYLATE] | Compound NOT metabolized | Compound NOT metabolized | Compound NOT metabolized | Compound NOT metabolized | Compound NOT metabolized | Compound NOT metabolized | Compound metabolized | Compound NOT metabolized | Compound metabolized | Compound metabolized | Compound metabolized | Compound NOT metabolized | Compound NOT metabolized | Compound metabolized | Compound metabolized | Compound metabolized | Compound NOT metabolized | Compound metabolized | Compound NOT metabolized | Compound NOT metabolized
5 | CN(C)CCOC(C)(c1ccccc1)c1ccccn1.O=C(O)CCC(=O)O (stereo not given) [DOXYLAMINE SUCCINATE] | Compound NOT metabolized | Compound NOT metabolized | Compound NOT metabolized | Compound NOT metabolized | Compound NOT metabolized | Compound NOT metabolized | Compound NOT metabolized | Compound NOT metabolized | Compound NOT metabolized | Compound NOT metabolized | Compound NOT metabolized | Compound NOT metabolized | Compound NOT metabolized | Compound NOT metabolized | Compound NOT metabolized | Compound NOT metabolized | Compound NOT metabolized | Compound NOT metabolized | Compound NOT metabolized | Compound NOT metabolized
6 | Br.CN1CCC[C@@H]1Cc1c[nH]c2ccc(CCS(=O)(=O)c3ccccc3)cc12 [ELETRIPTAN HYDROBROMIDE] | Compound NOT metabolized | Compound NOT metabolized | Compound NOT metabolized | Compound NOT metabolized | Compound NOT metabolized | Compound NOT metabolized | Compound NOT metabolized | Compound NOT metabolized | Compound metabolized | Compound metabolized | Compound NOT metabolized | Compound NOT metabolized | Compound metabolized | Compound metabolized | Compound metabolized | Compound metabolized | Compound NOT metabolized | Compound metabolized | Compound NOT metabolized | Compound NOT metabolized
7 | CCOc1ccc2nc(S(N)(=O)=O)sc2c1 [ETHOXZOLAMIDE] | Compound NOT metabolized | Compound NOT metabolized | Compound NOT metabolized | Compound NOT metabolized | Compound NOT metabolized | Compound NOT metabolized | Compound NOT metabolized | Compound NOT metabolized | Compound NOT metabolized | Compound metabolized | Compound NOT metabolized | Compound NOT metabolized | Compound NOT metabolized | Compound NOT metabolized | Compound NOT metabolized | Compound metabolized | Compound NOT metabolized | Compound NOT metabolized | Compound NOT metabolized | Compound NOT metabolized
8 | CCc1cccc2c3c([nH]c12)C(CC)(CC(=O)O)OCC3 (stereo not given) [ETODOLAC] | Compound NOT metabolized | Compound NOT metabolized | Compound NOT metabolized | Compound NOT metabolized | Compound NOT metabolized | Compound NOT metabolized | Compound NOT metabolized | Compound NOT metabolized | Compound metabolized | Compound metabolized | Compound metabolized | Compound metabolized | Compound metabolized | Compound metabolized | Compound metabolized | Compound metabolized | Compound metabolized | Compound metabolized | Compound NOT metabolized | Compound NOT metabolized
